Reference: ChEMBL document CHEMBL6078655, “Engineering of Novel Analogues That Are More Receptor-Selective and Potent than the Native Hormone, Insulin-like Peptide 5 (INSL5)” (J Med Chem, 2024)
Calls of active or inactive are those of the source. No cut-off for these calls is given here. Where a SMILES comes first, the peptide text is derived from it. Bridges are numbered along the chain shown (N, C = ends). Roman numbers before positions name the chains, in order. [ ]: non-standard residue; d: D form. 1Nal = N[C@@H](Cc1cccc2ccccc12)C(=O)O; Agb = N=C(N)NCC[C@H](N)C(=O)O

What was measured:
Relaxin-3 receptor 1 [1] = molecular target: T1, Relaxin-3 receptor 1 (Homo sapiens, UniProt Q9NSD7); test: Binding affinity to SmBit-tagged RXFP3 (unknown origin) expressed in HEK cells assessed as inhibition constant incubated for 1 hr by NanoBiT assay; format: cell-based
T1 sequence (Q9NSD7 whole entry): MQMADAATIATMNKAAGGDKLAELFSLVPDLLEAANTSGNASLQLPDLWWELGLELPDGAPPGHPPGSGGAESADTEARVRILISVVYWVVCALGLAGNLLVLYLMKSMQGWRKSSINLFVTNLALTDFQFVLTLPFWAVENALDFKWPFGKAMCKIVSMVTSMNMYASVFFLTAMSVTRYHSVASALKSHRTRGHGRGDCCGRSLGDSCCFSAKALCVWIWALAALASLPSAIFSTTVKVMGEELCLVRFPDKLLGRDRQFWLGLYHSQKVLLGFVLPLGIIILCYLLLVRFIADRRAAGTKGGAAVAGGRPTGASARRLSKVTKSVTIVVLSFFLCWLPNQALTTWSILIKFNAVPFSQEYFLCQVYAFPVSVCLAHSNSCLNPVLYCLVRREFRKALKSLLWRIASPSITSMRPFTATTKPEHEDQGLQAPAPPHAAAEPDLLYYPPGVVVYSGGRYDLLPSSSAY

Relaxin-3 receptor 2 [2] = molecular target: T2, Relaxin-3 receptor 2 (Homo sapiens, UniProt Q8TDU9); test: Binding affinity to LgBiT-tagged RXFP4 (unknown origin) expressed in HEK cells assessed as inhibition constant incubated for 1 hr by NanoBiT assay; format: cell-based
T2 sequence (Q8TDU9 whole entry): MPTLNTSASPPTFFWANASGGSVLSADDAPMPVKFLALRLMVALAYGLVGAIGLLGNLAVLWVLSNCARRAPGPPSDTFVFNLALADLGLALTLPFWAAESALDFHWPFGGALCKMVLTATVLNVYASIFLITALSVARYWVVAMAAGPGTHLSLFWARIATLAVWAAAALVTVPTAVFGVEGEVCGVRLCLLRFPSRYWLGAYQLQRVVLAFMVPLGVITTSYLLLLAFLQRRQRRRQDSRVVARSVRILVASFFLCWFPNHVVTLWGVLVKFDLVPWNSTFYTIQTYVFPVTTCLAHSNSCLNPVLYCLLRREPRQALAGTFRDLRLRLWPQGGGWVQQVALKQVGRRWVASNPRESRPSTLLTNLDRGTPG

Relaxin-3 receptor 1 [3] = molecular target: T1, Relaxin-3 receptor 1; test: (§1) Agonist activity at RXFP3 (unknown origin) expressed in CHO cells co-transfected with pCRE-galactosidase reporter plasmid assessed as inhibition of forskolin-induced cAMP accumulation incubated for 6 hrs by reporter gene assay; format: functional, cell-based
[4] = Selectivity index, ratio of Ki for binding affinity to SmBit-tagged RXFP3 (unknown origin) expressed in HEK cells assessed as inhibition constant to Ki for binding affinity to LgBiT-tagged RXFP4 (unknown origin) expressed in HEK cells assessed as inhibition constant; format: cell-based
Relaxin-3 receptor 2 [5] = molecular target: T2, Relaxin-3 receptor 2; test: Antagonist activity at RXFP4 in HEK293T cells assessed as beta-arrestin2 recruitment pretreated with coelenterazine for 10 mins followed by compound addition by BRET assay; format: functional, cell-based
Relaxin-3 receptor 2 [6] = molecular target: T2, Relaxin-3 receptor 2; test: Agonist activity at RXFP4 in HEK293T cells assessed as beta-arrestin2 recruitment pretreated with coelenterazine for 10 mins followed by compound addition by BRET assay; format: functional, cell-based
Relaxin-3 receptor 2 [7] = molecular target: T2, Relaxin-3 receptor 2; test: Agonist activity at RXFP4 (unknown origin) expressed in CHO cells co-transfected with pCRE-galactosidase reporter plasmid assessed as inhibition of forskolin-induced cAMP accumulation incubated for 6 hrs by reporter gene assay; format: functional, cell-based
[8] = molecular target: T3, Relaxin-3 receptor 1 (Homo sapiens) (UniProt Q9NSD7); test: as §1; format: functional, cell-based
T3 sequence (whole entry): T1 sequence (Q9NSD7 whole entry)

Compound | Ki (Relaxin-3 receptor 1 [1]; read-out: Ki) [nM] | Ki (Relaxin-3 receptor 2 [2]) [nM] | EC50 (Relaxin-3 receptor 1 [3]; cho, read-out: EC50) [nM] | EC50 (Relaxin-3 receptor 1 [3]; read-out: pEC50 (converted)) [nM] | Ratio Ki [4] | Activity (Relaxin-3 receptor 2 [5]) | EC50 (Relaxin-3 receptor 2 [6]) [nM] | EC50 (Relaxin-3 receptor 2 [7]; read-out: pEC50 (converted)) [nM] | Activity [8] | EC50 (Relaxin-3 receptor 2 [7]; read-out: EC50) [nM] | Ki (Relaxin-3 receptor 1 [1]; read-out: pKi (converted)) [nM]
CC[C@H](C)[C@@H]1NC(=O)[C@H](Cc2ccc(O)cc2)NC(=O)[C@H]([C@@H](C)CC)NC(=O)[C@H](C(C)C)NC(=O)[C@H]([C@@H](C)O)NC(=O)[C@H](CCCNC(=N)N)NC(=O)[C@H]([C@@H](C)CC)NC(=O)[C@H](Cc2ccc(O)cc2)NC(=O)[C@H](CCC(=O)O)NC(=O)[C@H](CC(C)C)NC(=O)CNC(=O)[C@@H](N)CSSC[C@H](N)C(=O)N[C@@H]([C@@H](C)O)C(=O)N[C@@H](CC(=O)O)C(=O)NCC(=O)N[C@@H](C)C(=O)N[C@@H](CO)C(=O)N[C@@H](CCSC)C(=O)N[C@@H](CCCCN)C(=O)N[C@@H](CC(=O)O)C(=O)N[C@@H](CC(C)C)C(=O)N[C@@H](CO)C(=O)N[C@@H](C)C(=O)N[C@@H](CC(C)C)C(=O)N[C@H](C(=O)O)CSSC[C@@H](C(=O)NCC(=O)NCC(=O)N[C@@H](CO)C(=O)N[C@@H](CCNC(=N)N)C(=O)N[C@@H](Cc2cccc3ccccc23)C(=O)O)NC1=O (I: H-CGLEYIRTVIYICGGS[Agb][1Nal]-OH / II: H-CTDGASMKDLSALC-OH; disulfide I:1-II:1, I:13-II:14) | 2190 | 1.32 | > 10000 | > 10000 | 1660 | inactive | 40.7 | 9.12 |  |  | 
CC[C@H](C)[C@@H]1NC(=O)[C@H](Cc2ccc(O)cc2)NC(=O)[C@H]([C@@H](C)CC)NC(=O)[C@H](C(C)C)NC(=O)[C@H]([C@@H](C)O)NC(=O)[C@H](CCCNC(=N)N)NC(=O)[C@H]([C@@H](C)CC)NC(=O)[C@H](Cc2ccc(O)cc2)NC(=O)[C@H](CCC(=O)O)NC(=O)[C@H](CC(C)C)NC(=O)CNC(=O)[C@@H](N)CSSC[C@H](N)C(=O)N[C@@H]([C@@H](C)O)C(=O)N[C@@H](CC(=O)O)C(=O)NCC(=O)N[C@@H](CS)C(=O)N[C@H](CO)C(=O)N[C@@H](CCSC)C(=O)N[C@@H](CCCCN)C(=O)N[C@@H](CC(=O)O)C(=O)N[C@@H](CC(C)C)C(=O)N[C@@H](CO)C(=O)N[C@@H](C)C(=O)N[C@@H](CC(C)C)C(=O)N[C@H](C(=O)O)CSSC[C@@H](C(=O)N[C@@H](C)C(=O)N[C@@H](CO)C(=O)N[C@@H](CO)C(=O)N[C@@H](CCCNC(=N)N)C(=O)N[C@@H](Cc2c[nH]c3ccccc23)C(=O)O)NC1=O | 426 | 8.71 |  |  | 49 |  |  |  | inactive | 8.32 | 
CC[C@H](C)[C@@H]1NC(=O)[C@H](Cc2ccc(O)cc2)NC(=O)[C@H]([C@@H](C)CC)NC(=O)[C@H](C(C)C)NC(=O)[C@H]([C@@H](C)O)NC(=O)[C@H](CCCNC(=N)N)NC(=O)[C@H]([C@@H](C)CC)NC(=O)[C@H](Cc2ccc(O)cc2)NC(=O)[C@H](CCC(=O)O)NC(=O)[C@H](CC(C)C)NC(=O)CNC(=O)[C@@H](NC(=O)[C@H](CC(C)C)NC(=O)[C@H](CCCNC(=N)N)NC(=O)[C@@H](NC(=O)[C@H](CO)NC(=O)[C@H](CCC(=O)O)NC(=O)[C@@H](N)CCCCN)C(C)C)CSSC[C@H](N)C(=O)N[C@@H]([C@@H](C)O)C(=O)N[C@@H](CC(=O)O)C(=O)NCC(=O)N[C@@H](CS)C(=O)N[C@H](CO)C(=O)N[C@@H](CCSC)C(=O)N[C@@H](CCCCN)C(=O)N[C@@H](CC(=O)O)C(=O)N[C@@H](CC(C)C)C(=O)N[C@@H](CO)C(=O)N[C@@H](C)C(=O)N[C@@H](CC(C)C)C(=O)N[C@H](C(=O)O)CSSC[C@@H](C(=O)N[C@@H](C)C(=O)N[C@@H](CO)C(=O)N[C@@H](CO)C(=O)N[C@@H](CCCNC(=N)N)C(=O)N[C@@H](Cc2c[nH]c3ccccc23)C(=O)O)NC1=O | 195 | 7.76 |  |  | 38 |  | 61.7 |  | inactive | 7.94 | 295
